According to ChEMBL document CHEMBL5137009, “On the Utility of Chemical Strategies to Improve Peptide Gut Stability” (J Med Chem, 2022):
*1 amine or outer side, *2 acyl side, *3 side chain or, on linkers, in order; H or OH if unused. Where a SMILES comes first, the peptide text is derived from it. Bridges are numbered along the chain shown (N, C = ends). X1 = O=C(CCC[*:2])[*:1]

assay: Stability of the compound in simulated gastric fluid at pH 1.2 assessed as half life measured up to 24 hrs by RP-HPLC-UV analysis; format: ADME

SMILES	half-life [h]
CC[C@H](C)[C@@H]1NC(=O)[C@@H]2CSSC[C@H](NC(=O)[C@H](CCCNC(=N)N)NC(=O)[C@@H]3CSSC[C@H](NC1=O)C(=O)N[C@@H]([C@@H](C)O)C(=O)N[C@@H](CCCNC(=N)N)C(=O)NCC(=O)N[C@@H](Cc1ccccc1)C(=O)N3)C(=O)N[C@@H](CC(C)C)C(=O)N[C@H]1CSSC[C@H](NC(=O)[C@H](C(C)C)NC(=O)CNC(=O)[C@H](CCCNC(=N)N)NC(=O)[C@H](CCCNC(=N)N)NC1=O)C(=O)N[C@@H](CCCNC(=N)N)C(=O)N2 (HELM PEPTIDE1{G.F.C.R.C.L.C.R.R.G.V.C.R.C.I.C.T.R}$PEPTIDE1,PEPTIDE1,3:R3-16:R3|PEPTIDE1,PEPTIDE1,5:R3-14:R3|PEPTIDE1,PEPTIDE1,7:R3-12:R3|PEPTIDE1,PEPTIDE1,1:R1-18:R2$$$V2.0)	2.2
CC[C@H](C)[C@@H]1NC(=O)[C@H](Cc2ccc(OC)cc2)NC(=O)CCCSC[C@@H](C(=O)N2CCC[C@H]2C(=O)N[C@@H](CC(C)C)C(=O)NCC(N)=O)NC(=O)[C@H](CC(N)=O)NC(=O)[C@H](CCC(N)=O)NC1=O [CARBETOCIN] (Y(Me)IQNCPLG-NH2; linker N-5 via X1)	> 24
C[C@@H]1NC(=O)[C@@H]2CCCN2C(=O)[C@H](CC(N)=O)NC(=O)[C@@H]2CSSC[C@H](N)C(=O)N[C@H]3CSSC[C@H](NC1=O)C(=O)N[C@@H]([C@@H](C)O)C(=O)NCC(=O)N[C@H](C(=O)N[C@@H](Cc1ccc(O)cc1)C(=O)O)CSSC[C@H](NC(=O)[C@H](Cc1ccc(O)cc1)NC(=O)[C@H](CCC(=O)O)NC3=O)C(=O)N2 [LINACLOTIDE] (HELM PEPTIDE1{C.C.E.Y.C.C.N.P.A.C.T.G.C.Y}$PEPTIDE1,PEPTIDE1,1:R3-6:R3|PEPTIDE1,PEPTIDE1,2:R3-10:R3|PEPTIDE1,PEPTIDE1,5:R3-13:R3$$$V2.0)	> 24
C[C@@H](O)[C@@H]1NC(=O)[C@H](CCCCN)NC(=O)[C@@H](Cc2c[nH]c3ccccc23)NC(=O)[C@H](Cc2ccccc2)NC(=O)[C@@H](NC(=O)[C@H](N)Cc2ccccc2)CSSC[C@@H](C(=O)N[C@H](CO)[C@@H](C)O)NC1=O [OCTREOTIDE]	> 24
CC[C@H](C)[C@@H]1NC(=O)[C@H](Cc2ccc(O)cc2)NC(=O)[C@@H](N)CSSC[C@@H](C(=O)N2CCC[C@H]2C(=O)N[C@@H](CC(C)C)C(=O)NCC(N)=O)NC(=O)[C@H](CC(N)=O)NC(=O)[C@H](CCC(N)=O)NC1=O [OXYTOCIN]	> 24

assay: Stability of the compound in simulated intestinal fluid at pH 6.8 assessed as half life measured up to 24 hrs by RP-HPLC-UV analysis; format: ADME

half-life [h]	SMILES
> 24	CC[C@H](C)[C@@H]1NC(=O)[C@H](Cc2ccc(O)cc2)NC(=O)[C@@H]2CSSC[C@@H]3NC(=O)[C@H](C(C)C)NC(=O)[C@@H]4CCCN4C(=O)[C@H](Cc4c[nH]c5ccccc45)NC(=O)[C@H](CO)NC(=O)[C@@H]4CSSC[C@H](NC(=O)[C@H]([C@@H](C)O)NC(=O)[C@H](CCC(=O)O)NC(=O)CNC(=O)[C@H](CSSC[C@H](NC(=O)[C@H](CC(N)=O)NC(=O)[C@H](CCC(N)=O)NC1=O)C(=O)N[C@@H]([C@@H](C)O)C(=O)N4)NC(=O)[C@H](C(C)C)NC(=O)[C@@H]1CCCN1C(=O)[C@H](CC(C)C)NC(=O)CNC(=O)[C@H](CC(N)=O)NC(=O)[C@H](CCCNC(=N)N)NC(=O)[C@H]([C@@H](C)O)NC3=O)C(=O)N[C@@H](C(C)C)C(=O)NCC(=O)NCC(=O)N[C@@H]([C@@H](C)O)C(=O)N2
4.4	CC[C@H](C)[C@@H]1NC(=O)[C@H](Cc2ccc(O)cc2)NC(=O)[C@@H](N)CSSC[C@@H](C(=O)N2CCC[C@H]2C(=O)N[C@@](C)(CC(C)C)C(=O)NCC(N)=O)NC(=O)[C@H](CC(N)=O)NC(=O)[C@H](CCC(N)=O)NC1=O
> 24	CC[C@H](C)[C@@H]1NC(=O)[C@H](Cc2ccc(O)cc2)NC(=O)[C@@H]2CSSC[C@@H]3NC(=O)[C@H]([C@@H](C)CC)NC(=O)[C@@H]4CCCN4C(=O)[C@H](Cc4c[nH]c5ccccc45)NC(=O)[C@H](CO)NC(=O)[C@@H]4CSSC[C@H](NC(=O)[C@H]([C@@H](C)O)NC(=O)[C@H](CCC(=O)O)NC(=O)CNC(=O)[C@H](CSSC[C@H](NC(=O)[C@H](CC(N)=O)NC(=O)[C@H]([C@@H](C)O)NC1=O)C(=O)N[C@@H]([C@@H](C)O)C(=O)N4)NC(=O)[C@H](C(C)C)NC(=O)[C@@H]1CCCN1C(=O)[C@H](CC(C)C)NC(=O)CNC(=O)[C@H](CC(N)=O)NC(=O)[C@H](CCCNC(=N)N)NC(=O)[C@H](CCCCN)NC3=O)C(=O)N[C@@H]([C@@H](C)O)C(=O)N[C@@H](CC(C)C)C(=O)NCC(=O)N[C@@H]([C@@H](C)O)C(=O)N2
3.6	CC[C@H](C)[C@@H]1NC(=O)[C@H](Cc2ccc(O)cc2)NC(=O)[C@@H](N)CSSC[C@@H](C(=O)N2CCC[C@H]2C(=O)N[C@H](CC(=O)NCC(N)=O)CC(C)C)NC(=O)[C@H](CC(N)=O)NC(=O)[C@H](CCC(N)=O)NC1=O
0.117	CC[C@H](C)[C@@H]1NC(=O)[C@H](Cc2ccc(O)cc2)NC(=O)[C@@H]2CSSC[C@H](NC(=O)[C@H](CC(N)=O)NC(=O)[C@H](CCC(N)=O)NC1=O)C(=O)N1CCC[C@H]1C(=O)N[C@@H](CC(C)C)C(=O)NCC(=O)N2
0.05	CC[C@H](C)[C@@H]1NC(=O)[C@@H]2CCCN2C(=O)[C@@H]2CCCN2C(=O)[C@H]([C@@H](C)CC)NC(=O)[C@H](CO)NC(=O)[C@H](CCCCN)NC(=O)[C@H]([C@@H](C)O)NC(=O)[C@@H]2CSSC[C@H](NC1=O)C(=O)N[C@@H](Cc1ccc(OC)cc1)C(=O)N[C@@H](Cc1ccccc1)C(=O)N[C@@H](CCC(N)=O)C(=O)N[C@@H](CC(N)=O)C(=O)N[C@@H](CCCNC(=N)N)C(=O)N1CCC[C@H]1C(=O)N[C@@H](CCCNC(=N)N)C(=O)N2 (cyclo(CTKSIPPICY(Me)FQNRPR); disulfide 1-9)

Continued, compound first:

SMILES	half-life [h]
CC[C@H](C)[C@@H]1NC(=O)[C@H](Cc2ccc(O)cc2)NC(=O)[C@@H](N)CSSC[C@@H](C(=O)N2CCC[C@H]2C(=O)N[C@@H](CC(C)C)C(=O)N(C)CC(N)=O)NC(=O)[C@H](CC(N)=O)NC(=O)[C@H](CCC(N)=O)NC1=O	2.9
CC[C@H](C)[C@@H]1NC(=O)[C@H](Cc2ccc(O)cc2)NC(=O)[C@@H]2CSSC[C@@H]3NC(=O)[C@H](C(C)C)NC(=O)[C@@H]4CCCN4C(=O)[C@H](Cc4c[nH]c5ccccc45)NC(=O)[C@H](CO)NC(=O)[C@@H]4CSSC[C@H](NC(=O)[C@H]([C@@H](C)O)NC(=O)[C@H](CCC(=O)O)NC(=O)CNC(=O)[C@H](CSSC[C@H](NC(=O)[C@H](CC(N)=O)NC(=O)[C@H]([C@@H](C)O)NC1=O)C(=O)N[C@@H]([C@@H](C)O)C(=O)N4)NC(=O)[C@H](C(C)C)NC(=O)[C@@H]1CCCN1C(=O)[C@H](CC(C)C)NC(=O)CNC(=O)[C@H](CC(N)=O)NC(=O)[C@H](CCCNC(=N)N)NC(=O)[C@H]([C@@H](C)O)NC3=O)C(=O)N[C@@H](C(C)C)C(=O)NCC(=O)NCC(=O)N[C@@H]([C@@H](C)O)C(=O)N2	> 24
CC[C@@H](C)[C@H]1NC(=O)[C@@H](Cc2ccc(O)cc2)NC(=O)[C@H](N)CSSC[C@H](C(=O)N2CCC[C@@H]2C(=O)N[C@H](CC(C)C)C(=O)NCC(N)=O)NC(=O)[C@@H](CC(N)=O)NC(=O)[C@@H](CCC(N)=O)NC1=O	> 24
[H][C@@]12CCCN1C(=O)[C@@H]1CSSC[C@H](NC(=O)CNC(=O)[C@H](C)NC(=O)CNC(=O)[C@H](C)NC(=O)CNC(=O)[C@H](C)NC(=O)CNC(=O)[C@H](CC(C)C)NC2=O)C(=O)N[C@@H](Cc2ccc(O)cc2)C(=O)N[C@@H]([C@@H](C)CC)C(=O)N[C@@H](CCC(N)=O)C(=O)N[C@@H](CC(N)=O)C(=O)N1 (HELM PEPTIDE1{A.G.A.G.A.G.C.Y.I.Q.N.C.P.L.G}$PEPTIDE1,PEPTIDE1,7:R3-12:R3|PEPTIDE1,PEPTIDE1,1:R1-15:R2$$$V2.0)	< 0.05
